Reference: PMC5844530, “Fosmetpantotenate (RE-024), a phosphopantothenate replacement therapy for pantothenate kinase-associated neurodegeneration: Mechanism of action and efficacy in nonclinical models” (PLoS ONE, 2018)
Where “and” joins values, the source holds several entries; their conditions need not be identical. Identical values can stand only once.

Columns and labels:
[1] = Pharmacokinetics in whole blood, CD-1 mice; details: for % Parent AUCAll: CD1 mouse, metabolite AUCall/Parent AUCall x 100; for Whole Blood Conc. of compound 2: CD-1 mice; for concentration at 0.083 h / concentration at 2 h / concentration at 4 h / concentration at 8 h / concentration at 0.333 h / concentration at 0.5 h / concentration at 1 h: male, CD-1, mouse, whole blood, po, Whole Blood Conc. of compound 2, CD-1 mice
[2] = Pharmacokinetics in whole blood, cynomolgus monkeys
[3] = Pharmacokinetics in whole blood, Sprague-Dawley rats; details: for % Parent AUCAll: Sprague-Dawley rat, metabolite AUCall/Parent AUCall x 100; for Whole Blood Conc. of compound 2: Sprague-Dawley rats; for concentration at 4 h / concentration at 8 h / concentration at 2 h / concentration at 0.5 h: Sprague-Dawley, rat, whole blood, po, Whole Blood Conc. of compound 2, Sprague-Dawley rats
Procedure: The whole blood samples (0.5 mL) were collected into syringes that were prefilled with 2.5 mL of ice-cold 0.1% formic acid in acetonitrile. The volume ratio of the whole blood to 0.1% formic acid in acetonitrile was 1/5 (v/v). Samples were frozen (-70°C) until analyzed by LC-MS/MS.
Standard curves and quality control (QC) samples were prepared fresh on the day of analysis by serial dilution of the standard mixture in quenched whole blood (1 part of blood to 5 parts of 0.1% formic acid in acetonitrile) and centrifuged. […] The frozen study samples were thawed in an ice/water bath and centrifuged. Supernatant (50 μL) from standards, QC samples, and study samples was transferred to a 96-well plate and dried completely under nitrogen. The dried residues were reconstituted with 100 μL of 0.1% formic acid in water containing internal standard (5 ng/mL of ^15N/^13C3-RE-024-02) and analyzed by LC-MS/MS.
LC-MS/MS analysis for blood pharmacokinetic samples: Samples were analyzed using an Agilent 1100 binary pump (Agilent Technologies, Santa Clara, CA, USA), connected to an AB Sciex API 6500 mass spectrometer (SCIEX, Framingham, MA, USA). An electrospray ionization source was used, scanning in the positive mode. […] The chromatography column was a Varian Metasil AQ 120–5 C18 column, 5 μm, 50 x 2.00 mm (Part No. A0530050X020) at ambient temperature, with a 0.5 mL/min flow rate and a 20 μL injection volume. Mobile phase (A) consisted of 0.1% formic acid in water; while mobile phase (B) consisted of 0.1% formic acid in acetonitrile:water (9:1, v/v).
Quantitation of in vivo samples: Peak areas were integrated using Analyst software (AB Sciex, Concord, Ontario, Canada). […] Calibration standards (at a minimum 7 per curve) were fit by linear regression with (1/x^2) weighting. QC samples were used (triplicate) at 3 concentrations for all tandem mass spectrometry (MS/MS) runs.
Pharmacokinetic calculations: PK analysis was performed using Phoenix WinNonlin®, Build 6.3.0.395 (Certara, Princeton, NJ, USA) using a non-compartmental model (PO dose = model 200 for extravascular dosing). […] Post-dose concentrations below the limit of quantitation (BLQ) were omitted from calculation.

[4] = 100 mg/kg, single 100 mg/kg RE-024-02 PO, LLOQ 3 ng/mL
[5] = 100 mg/kg, single 100 mg/kg RE-024-02 PO, LLOQ 10.2 nM

% Parent AUCAll ([1]; 100 mg/kg PO): 8,550%
% Parent AUCAll ([1]; 300 mg/kg PO): 29,800%
% Parent AUCAll ([1]; 700 mg/kg PO): 7,220%
Whole Blood Conc. of compound 2 ([1]; single 300 mg/kg RE-024-02 PO, 0.333 hr, LLOQ 10.2 nM, 300 mg/kg): 1676.7 nM and 1863.6 nM and 1325.1 nM
Whole Blood Conc. of compound 2 ([1]; single 300 mg/kg RE-024-02 PO, 0.5 hr, LLOQ 10.2 nM, 300 mg/kg): 1599.4 nM and 1111.7 nM and 955.2 nM
Whole Blood Conc. of compound 2 ([1]; single 300 mg/kg RE-024-02 PO, 4 hr, LLOQ 3 ng/mL, 300 mg/kg): 15.4 ng/mL and 22.8 ng/mL and 26.2 ng/mL
Whole Blood Conc. of compound 2 ([1]; single 300 mg/kg RE-024-02 PO, 4 hr, LLOQ 10.2 nM, 300 mg/kg): 52.2 nM and 77.2 nM and 88.6 nM
Whole Blood Conc. of compound 2 ([1]; single 700 mg/kg RE-024-02 PO, 0.333 hr, LLOQ 3 ng/mL, 700 mg/kg): 1656 ng/mL
Whole Blood Conc. of compound 2 ([1]; single 700 mg/kg RE-024-02 PO, 0.333 hr, LLOQ 10.2 nM, 700 mg/kg): 5609.2 nM
Whole Blood Conc. of compound 2 ([1]; single 700 mg/kg RE-024-02 PO, 1 hr, LLOQ 3 ng/mL, 700 mg/kg): 318 ng/mL and 373.2 ng/mL and 381 ng/mL
Whole Blood Conc. of compound 2 ([1]; single 700 mg/kg RE-024-02 PO, 1 hr, LLOQ 10.2 nM, 700 mg/kg): 1077.1 nM and 1264.1 nM and 1290.5 nM
Whole Blood Conc. of compound 2 ([1]; single 700 mg/kg RE-024-02 PO, 4 hr, LLOQ 3 ng/mL, 700 mg/kg): 84 ng/mL and 92.4 ng/mL and 88.2 ng/mL
Whole Blood Conc. of compound 2 ([1]; single 700 mg/kg RE-024-02 PO, 4 hr, LLOQ 10.2 nM, 700 mg/kg): 284.5 nM and 313 nM and 298.8 nM
concentration at 0.083 h [1, 4]: 17.4 ng/mL
concentration at 0.083 h [1, 5]: 58.9 nM
concentration at 2 h [1, 4]: 5.1 ng/mL
concentration at 2 h [1, 5]: 17.3 nM
concentration at 4 h ([1]; 100 mg/kg, single 100 mg/kg RE-024-02 PO, 4 hr, LLOQ 3 ng/mL): 3.5 ng/mL
concentration at 4 h ([1]; 100 mg/kg, single 100 mg/kg RE-024-02 PO, 4 hr, LLOQ 10.2 nM): 11.7 nM
concentration at 8 h [1, 4]: 3.5 ng/mL
concentration at 8 h [1, 5]: 11.9 nM
concentration at 0.333 h ([1]; 300 mg/kg, single 300 mg/kg RE-024-02 PO, 0.333 hr, LLOQ 3 ng/mL): 443 ng/mL
concentration at 0.333 h ([1]; 300 mg/kg, single 300 mg/kg RE-024-02 PO, 0.333 hr, LLOQ 10.2 nM): 1500 nM
concentration at 0.5 h ([1]; 300 mg/kg, single 300 mg/kg RE-024-02 PO, 0.5 hr, LLOQ 3 ng/mL): 254 ng/mL
concentration at 0.5 h ([1]; 300 mg/kg, single 300 mg/kg RE-024-02 PO, 0.5 hr, LLOQ 10.2 nM): 860 nM
concentration at 4 h ([1]; 300 mg/kg, single 300 mg/kg RE-024-02 PO, 4 hr, LLOQ 3 ng/mL): 21.9 ng/mL
concentration at 4 h ([1]; 300 mg/kg, single 300 mg/kg RE-024-02 PO, 4 hr, LLOQ 10.2 nM): 74.2 nM
concentration at 0.333 h ([1]; 700 mg/kg, single 700 mg/kg RE-024-02 PO, 0.333 hr, LLOQ 3 ng/mL): 1910 ng/mL
concentration at 0.333 h ([1]; 700 mg/kg, single 700 mg/kg RE-024-02 PO, 0.333 hr, LLOQ 10.2 nM): 6460 nM
concentration at 1 h ([1]; 700 mg/kg, single 700 mg/kg RE-024-02 PO, 1 hr, LLOQ 3 ng/mL): 541 ng/mL
concentration at 1 h ([1]; 700 mg/kg, single 700 mg/kg RE-024-02 PO, 1 hr, LLOQ 10.2 nM): 1830 nM
concentration at 4 h ([1]; 700 mg/kg, single 700 mg/kg RE-024-02 PO, 4 hr, LLOQ 3 ng/mL): 104 ng/mL
concentration at 4 h ([1]; 700 mg/kg, single 700 mg/kg RE-024-02 PO, 4 hr, LLOQ 10.2 nM): 354 nM
% Parent AUCAll ([2]; Cynomolgus monkey, 300 mg/kg PO, metabolite AUCall/Parent AUCall x 100): 132%
concentration at 0.5 h ([2]; cynomolgus monkey, whole blood, po, 300 mg/kg, Concentration of compound 2 in whole blood, cynomolgus monkeys, single oral 300 mg/kg fosmetpantotenate, 0.5 hr, LLOQ 2.03 nM): 1860 nM
concentration at 1 h ([2]; cynomolgus monkey, whole blood, po, 300 mg/kg, Concentration of compound 2 in whole blood, cynomolgus monkeys, single oral 300 mg/kg fosmetpantotenate, 1 hr, LLOQ 2.03 nM): 1970 nM
concentration at 4 h ([2]; cynomolgus monkey, whole blood, po, 300 mg/kg, Concentration of compound 2 in whole blood, cynomolgus monkeys, single oral 300 mg/kg fosmetpantotenate, 4 hr, LLOQ 2.03 nM): 2350 nM
concentration at 8 h ([2]; cynomolgus monkey, whole blood, po, 300 mg/kg, Concentration of compound 2 in whole blood, cynomolgus monkeys, single oral 300 mg/kg fosmetpantotenate, 8 hr, LLOQ 2.03 nM): 1150 nM
Concentration of compound 2 in whole blood ([2]; cynomolgus monkeys, single oral 300 mg/kg fosmetpantotenate, 0.083 hr, LLOQ 2.03 nM): BQL
Concentration of compound 2 in whole blood ([2]; cynomolgus monkeys, single oral 300 mg/kg fosmetpantotenate, 0.5 hr, LLOQ 2.03 nM, 300 mg/kg): 1210.45 nM
Concentration of compound 2 in whole blood ([2]; cynomolgus monkeys, single oral 300 mg/kg fosmetpantotenate, 1 hr, LLOQ 2.03 nM, 300 mg/kg): 2023.57 nM
Concentration of compound 2 in whole blood ([2]; cynomolgus monkeys, single oral 300 mg/kg fosmetpantotenate, 4 hr, LLOQ 2.03 nM, 300 mg/kg): 4441.22 nM
Concentration of compound 2 in whole blood ([2]; cynomolgus monkeys, single oral 300 mg/kg fosmetpantotenate, 8 hr, LLOQ 2.03 nM, 300 mg/kg): 996.85 nM
% Parent AUCAll ([3]; 300 mg/kg PO): 1,250%
% Parent AUCAll ([3]; 700 mg/kg PO): 220%
Whole Blood Conc. of compound 2 ([3]; single 300 mg/kg RE-024-02 PO, time 2, LLOQ 3 ng/mL, 300 mg/kg): 38.46 ng/mL and 47.10 ng/mL
Whole Blood Conc. of compound 2 ([3]; single 300 mg/kg RE-024-02 PO, time 2, LLOQ 10.2 nM, 300 mg/kg): 130.27 nM and 159.54 nM
Whole Blood Conc. of compound 2 ([3]; single 300 mg/kg RE-024-02 PO, time 8, LLOQ 3 ng/mL, 300 mg/kg): 5.25 ng/mL and 7.14 ng/mL
Whole Blood Conc. of compound 2 ([3]; single 300 mg/kg RE-024-02 PO, time 8, LLOQ 10.2 nM, 300 mg/kg): 17.78 nM and 24.18 nM
Whole Blood Conc. of compound 2 ([3]; single 700 mg/kg RE-024-02 PO, time 0.5, LLOQ 3 ng/mL, 700 mg/kg): 247.20 ng/mL and 285.00 ng/mL
Whole Blood Conc. of compound 2 ([3]; single 700 mg/kg RE-024-02 PO, time 0.5, LLOQ 10.2 nM, 700 mg/kg): 837.31 nM and 965.35 nM
Whole Blood Conc. of compound 2 ([3]; single 700 mg/kg RE-024-02 PO, time 2, LLOQ 3 ng/mL, 700 mg/kg): 61.80 ng/mL and 118.20 ng/mL
Whole Blood Conc. of compound 2 ([3]; single 700 mg/kg RE-024-02 PO, time 2, LLOQ 10.2 nM, 700 mg/kg): 209.33 nM and 400.37 nM
concentration at 4 h ([3]; 100 mg/kg, single 100 mg/kg RE-024-02 PO, time 4, LLOQ 3 ng/mL): 5.57 ng/mL
concentration at 4 h ([3]; 100 mg/kg, single 100 mg/kg RE-024-02 PO, time 4, LLOQ 10.2 nM): 18.9 nM
concentration at 8 h ([3]; 100 mg/kg, single 100 mg/kg RE-024-02 PO, time 8, LLOQ 3 ng/mL): 6.42 ng/mL
concentration at 8 h ([3]; 100 mg/kg, single 100 mg/kg RE-024-02 PO, time 8, LLOQ 10.2 nM): 21.8 nM
concentration at 2 h ([3]; 300 mg/kg, single 300 mg/kg RE-024-02 PO, time 2, LLOQ 10.2 nM): 258 nM
concentration at 8 h ([3]; 300 mg/kg, single 300 mg/kg RE-024-02 PO, time 8, LLOQ 3 ng/mL): 9.36 ng/mL
concentration at 8 h ([3]; 300 mg/kg, single 300 mg/kg RE-024-02 PO, time 8, LLOQ 10.2 nM): 31.7 nM
concentration at 2 h ([3]; male, 300 mg/kg, single 300 mg/kg RE-024-02 PO, time 2, LLOQ 3 ng/mL): 76.2 ng/mL
concentration at 0.5 h ([3]; male, 700 mg/kg, single 700 mg/kg RE-024-02 PO, time 0.5, LLOQ 3 ng/mL): 452 ng/mL
concentration at 0.5 h ([3]; male, 700 mg/kg, single 700 mg/kg RE-024-02 PO, time 0.5, LLOQ 10.2 nM): 1530 nM
concentration at 2 h ([3]; male, 700 mg/kg, single 700 mg/kg RE-024-02 PO, time 2, LLOQ 3 ng/mL): 105 ng/mL
concentration at 2 h ([3]; male, 700 mg/kg, single 700 mg/kg RE-024-02 PO, time 2, LLOQ 10.2 nM): 356 nM
Compound: COC(=O)CCNC(=O)[C@@H]1OP(=O)(O)OCC1(C)C [Compound 2]
Whole Blood Conc. of compound 2 ([1]; single 300 mg/kg RE-024-02 PO, 0.333 hr, LLOQ 3 ng/mL, 300 mg/kg): 495 ng/mL and 550.2 ng/mL and 391.2 ng/mL
Whole Blood Conc. of compound 2 ([1]; single 300 mg/kg RE-024-02 PO, 0.5 hr, LLOQ 3 ng/mL, 300 mg/kg): 472.2 ng/mL and 328.2 ng/mL and 282 ng/mL
